Test results from ChEMBL document CHEMBL1150881, “Glacins A and B: two novel bioactive mono-tetrahydrofuran acetogenins from Annona glabra” (J Nat Prod, 1998).
In brackets after ≈: the same amount, converted by molar mass.

What was measured:
[1] = test system: A549; test: Cytotoxicity against human A549 cells after 7 days by MTT assay; type: functional; conditions: A549, 168 h, read-out: ED50 (the source's name)
[2] = test system: MCF7; test: Cytotoxicity against human MCF7 cells after 7 days by MTT assay; type: functional; conditions: MCF7, 168 h, read-out: ED50 (the source's name)
[3] = test system: HT-29; test: Cytotoxicity against human HT-29 cells after 7 days by MTT assay; type: functional; conditions: HT-29, 168 h, read-out: ED50 (the source's name)
[4] = test system: A498; test: Cytotoxicity against human A498 cells after 7 days by MTT assay; type: functional; conditions: A498, 168 h, read-out: ED50 (the source's name)
[5] = test system: PC-3; test: Cytotoxicity against human PC3 cells after 7 days by MTT assay; type: functional; conditions: PC-3, 168 h, read-out: ED50 (the source's name)
[6] = test system: MIA PaCa-2; test: Cytotoxicity against human MIAPaCa2 cells after 7 days by MTT assay; type: functional; conditions: MIA PaCa-2, 168 h, read-out: ED50 (the source's name)
[7] = Toxicity in Artemia salina; type: organism-based; conditions: in vivo

SMILES	EC50 [1] [µg/mL]	EC50 [2] [µg/mL]	EC50 [3] [µg/mL]	EC50 [4] [µg/mL]	EC50 [5] [µg/mL]	EC50 [6] [µg/mL]	LC50 [7] [µg/mL]
COc1cccc2c1C(=O)c1c(O)c3c(c(O)c1C2=O)C[C@@](O)(C(=O)CO)C[C@@H]3O[C@H]1C[C@H](N)[C@H](O)[C@H](C)O1 [DOXORUBICIN]	0.0191 (≈ 0.0351 µM)	0.179 (≈ 0.329 µM)	0.0278 (≈ 0.0511 µM)	0.0062 (≈ 0.0114 µM)	0.046 (≈ 0.0846 µM)	0.0153 (≈ 0.0281 µM)	–
CCCCCCCCCC[C@@H](O)[C@H]1CC[C@H]([C@H](O)CCCC[C@H](O)CCCCCCC[C@@H](O)CC2=C[C@H](C)OC2=O)O1 [GLACIN A]	1.53 (≈ 2.56 µM)	0.00442 (≈ 0.00741 µM)	2.3 (≈ 3.85 µM)	1.25 (≈ 2.09 µM)	0.00981 (≈ 0.0164 µM)	0.00857 (≈ 0.0144 µM)	0.11 (≈ 0.184 µM)
CCCCCCCCCC[C@H](O)[C@@H](O)CCCC[C@H]1CC[C@H]([C@H]2CC[C@H]([C@H](O)CCCCC[C@@H](O)CC3=C[C@H](C)OC3=O)O2)O1 [GLACIN B]	1.29 (≈ 2.02 µM)	0.052 (≈ 0.0814 µM)	0.0868 (≈ 0.136 µM)	2.61 (≈ 4.08 µM)	0.0559 (≈ 0.0875 µM)	0.0274 (≈ 0.0429 µM)	0.27 (≈ 0.423 µM)
